Experimental data published in patent US9763942B2, “Serine/threonine kinase inhibitors” (Array BioPharma Inc., priority 2013, dated 2017).

Target: T1, human ERK-2 (Mitogen Activated Kinase 1) (Homo sapiens, UniProt P28482)
T1 construct: n-terminal 6-His fusion protein in E. coli and corresponding to aa 8-360; 6-His (N); made in house; host or cells: E. coli
Assay: ERK-2 Enzymatic Assay
Type: biochemical
Details: ERK-2 enzymatic assay; read-out: IC50
Excerpt: Table 1 contains representative data for Examples disclosed herein.

T1 sequence (P28482 8-360): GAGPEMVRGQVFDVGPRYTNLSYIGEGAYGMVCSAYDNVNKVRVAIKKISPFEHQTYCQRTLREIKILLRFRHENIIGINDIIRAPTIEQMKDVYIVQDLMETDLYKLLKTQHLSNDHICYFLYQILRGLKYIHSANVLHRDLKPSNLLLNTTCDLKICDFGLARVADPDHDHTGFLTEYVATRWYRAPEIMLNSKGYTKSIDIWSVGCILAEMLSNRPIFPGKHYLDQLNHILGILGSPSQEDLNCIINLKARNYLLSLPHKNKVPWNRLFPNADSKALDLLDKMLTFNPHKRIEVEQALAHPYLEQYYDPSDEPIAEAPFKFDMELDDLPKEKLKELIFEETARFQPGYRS

SMILES | IC50 [µM]
COc1ccc(Cn2nnc3cc(-c4ccnc(Nc5ccnn5C)n4)ccc32)cc1 [Example 65, 4-(1-(4-methoxybenzyl)-1H-benzo[d][1,2,3]triazol-5-yl)-N-(1-methyl-1H-pyrazol-5-yl)pyrimidin-2-amine] | < 0.1
COc1ccc([C@@H](c2cnnn2C)n2nnc3cc(-c4ccnc(Nc5ccnn5C)n4)ccc32)cc1F [Example 71, (S)-4-(l-((3-fluoro-4-methoxyphenyl)(1-methyl-1H-1,2,3-triazol-5-yl)methyl)-1H-benzo[d][1,2,3]triazol-5-yl)-N-(1-methyl-1H-pyrazol-5-yl)pyrimidin-2-amine] | < 0.1
CN1CC(n2nnc3cc(-c4ccnc(Nc5cnn(C)c5)n4)ccc32)[C@H](c2ccc(F)cc2F)C1 (stereo partly drawn) [Example 73, 4-(1-((3S,4R)-4-(2,4-difluorophenyl)-1-methylpyrrolidin-3-yl)-1H-benzo[d][1,2,3]triazol-5-yl)-N(1-methyl-1H-pyrazol-4-yl)pyrimidin-2-amine] | < 0.1
CN1C[C@@H](n2nnc3cc(-c4ccnc(Nc5ccnn5C)n4)ccc32)[C@H](c2ccc(F)cc2F)C1 [Example 74, 4-(1-((3S,4R)-4-(2,4-difluorophenyl)-1-methylpyrrolidin-3-yl)-1H-benzo[d][1,2,3]triazol-5-yl)-N-(1-methyl-1H-pyrazol-5-yl)pyrimidin-2-amine] | < 0.1
CN1C[C@@H](n2nnc3cc(-c4ccnc(Nc5ccnn5C)n4)ccc32)[C@H](c2ccc(F)c(F)c2)C1 [Example 75, 4-(1-((3S,4R)-4-(3,4-difluorophenyl)-1-methylpyrrolidin-3-yl)-1H-benzo[d][1,2,3]triazol-5-yl)-N-(1-methyl-1H-pyrazol-5-yl)pyrimidin-2-amine] | < 0.1
CN1C[C@@H](n2nnc3cc(-c4ccnc(Nc5ccnn5C)n4)ccc32)[C@H](c2cc(F)cc(F)c2)C1 [Example 76, 4-(1-((3S,4R)-4-(3,5-difluorophenyl)-1-methylpyrrolidin-3-yl)-1H-benzo[d][1,2,3]triazol-5-yl)-N-(1-methyl-1H-pyrazol-5-yl)pyrimidin-2-amine] | < 0.1

Results, then the compound that gave them:

IC50 [µM] | SMILES
< 0.1 | Cn1nccc1Nc1nccc(-c2ccc3c(c2)nnn3Cc2cccnc2Cl)n1 [Example 66, 4-(1-((2-chloropyridin-3-yl)methyl)-1H-benzo[d][1,2,3]triazol-5-yl)-N-(1-methyl-1H-pyrazol-5-yl)pyrimidin-2-amine]
< 0.1 | COc1ncccc1Cn1nnc2cc(-c3ccnc(Nc4ccnn4C)n3)ccc21 [Example 67, 4-(1-((2-methoxypyridin-3-yl)methyl)-1H-benzo[d][1,2,3]triazol-5-yl)-N-(1-methyl-1H-pyrazol-5-yl)pyrimidin-2-amine]
< 0.1 | COc1cccnc1Cn1nnc2cc(-c3ccnc(Nc4ccnn4C)n3)ccc21 [Example 68, 4-(1-((3-methoxypyridin-2-yl)methyl)-1H-benzo[d][1,2,3]triazol-5-yl)-N-(1-methyl-1H-pyrazol-5-yl)pyrimidin-2-amine]
< 0.1 | Cn1nccc1Nc1nccc(-c2ccc3c(c2)nnn3Cc2ncc(F)cc2F)n1 [Example 69, 4-(1-((3,5-difluoropyridin-2-yl)methyl)-1H-benzo[d][1,2,3]triazol-5-yl)-N-(1-methyl-1H-pyrazol-5-yl)pyrimidin-2-amine]
< 0.1 | CCN1C[C@@H](n2nnc3cc(-c4ccnc(Nc5ccnn5C)n4)ccc32)[C@H](c2ccc(F)c(F)c2)C1 [Example 77, 4-(1-((3S,4R)-4-(3,4-difluorophenyl)-1-ethylpyrrolidin-3-yl)-1H-benzo[d][1,2,3]triazol-5-yl)-N-(1-methyl-1H-pyrazol-5-yl)pyrimidin-2-amine]
< 0.1 | Cn1nccc1Nc1nccc(-c2ccc3c(c2)nnn3[C@@H]2CNC[C@H]2c2ccc(F)c(F)c2)n1 [Example 78, 4-(1-((3S,4R)-4-(3,4-difluorophenyl)pyrrolidin-3-yl)-1H-benzo[d][1,2,3]triazol-5-yl)-N-(1-methyl-1H-pyrazol-5-yl)pyrimidin-2-amine]
